The source of these data is patent US10668028B2, “Methods and use of inducing apoptosis in cancer cells” (Berg LLC, priority 2008, dated 2020).

Test [1] concerns human melanoma tumors. The experiment in a line: histopathology analysis of human melanoma (Skmel-28) tumors induced in nude athymic mice. The conditions noted are these: topical application for 30 days, H & E or S-100 stain. Type of test: in vivo. The protocol:
Skmel-28 cells were grown in 5% serum supplemented DMEM/F12 medium to 80% confluency. The cells were trypsinized and pelleted using a centrifuge. The pellets were then resuspended in cold PBS. The subjects for this study were nude athymia mice. Each subject received two injections of the cell suspension on the dorsal region of the mouse. After a visual assessment of the establishment of a tumor, treatment with a topical application would commence. After 30 days of treatment, the tumors were excised from the mice and placed in formalin. Each tumor sample was embedded in paraffin and sliced using a microtome. The slides underwent an H & E or S-100 stain. These samples were than analyzed by a pathologist to assess the vascular integrity of the tumor.

For test [2], the system named is Bcl-2 protein. The settings on record: melanoma; cited from earlier work.

For `COC1=C(OC)C(=O)C(C/C=C(\C)CC/C=C(\C)CC/C=C(\C)CC/C=C(\C)CC/C=C(\C)CC/C=C(\C)CC/C=C(\C)CC/C=C(\C)CC/C=C(\C)CCC=C(C)C)=C(C)C1=O` [CoQ10, 2,3-dimethoxy-5-methyl-6-decaprenyl-1,4-benzoquinone], in test [1], the “tumor pathology / vascular integrity of the tumor” value was “disruption in tumor vasculature”. Also, the Bcl-2 protein level entry in test [2] is “downregulation of the Bcl-2 protein”.
